Data reported in patent US20160281050A1, “METHODS FOR TREATING A CULTURE OF HAEMATOCOCCUS PLUVIALIS FOR CONTAMINATION USING SALT AND HYDROGEN PEROXIDE” (HELIAE DEVELOPMENT LLC, priority 2015, published 2016).

Tested on: Haematococcus pluvialis (Strain 2)
Assay: % cell lysis, culture dry weight and % carotenoid by UV method in 230 L reactors, salt treatment (Example 12)
Format: cell-based
Settings: for Culture Dry Weight in 230L reactors: NaCl 2 ppt (1st 2 ppt column)
Protocol: This test was done side by side in flasks (0.1 L) and in reactors located in a greenhouse operating in conditions: reactor volume of 230 L; Daily PAR of 20 mol m^−2 d^−1; pH (not measured); and paddlewheel speed of 21 RPM. […] The flask cultures were mixed by shaking at 140 rpm and received 300-400 μmol/m^2 s of photosynthetically active radiation (PAR) in 12 hour light cycles and constant supply of 2.5% CO2. The motility of the culture was monitored by visual observation under a microscope. […] Nine 230 L reactors were also seeded with culture from bioreactor #2410 on the same day as the flasks and brought to 2 ppt concentration of salt. Once motility of the cells was reduced to <10% (day 3 of culture for flasks and day 2 for 230 L reactors) the level of salt was elevated to a point between 4-18 ppt and compared to the culture in two reactors remaining at 2 ppt salt. Flasks and 230 L reactors were monitored for percentage of cell lysis via visual observation under a microscope, culture dry weight (biomass accumulation in g/L), and percentage of chytrid infection via visual observation under a microscope. Carotenoid production, a proxy for determining astaxanthin, was quantified every other day of culture in the 230 L reactors using the UV method.

[Cl-].[Na+] [NaCl, sodium chloride]
% Cell Lysis in 230L reactors (4 ppt, 2 d): 1.67%
% Cell Lysis in 230L reactors (4 ppt, 3 d): 0.00%
% Cell Lysis in 230L reactors (4 ppt, 4 d): 0.00%
% Cell Lysis in 230L reactors (4 ppt, 5 d): 3.33%
% Cell Lysis in 230L reactors (4 ppt, 6 d): 0.00%
% Cell Lysis in 230L reactors (4 ppt, 7 d): 30.00%
% Cell Lysis in 230L reactors (4 ppt, 8 d): 23.33%
% Cell Lysis in 230L reactors (4 ppt, 9 d): 13.33%
% Cell Lysis in 230L reactors (4 ppt, 10 d): 11.67%
% Cell Lysis in 230L reactors (4 ppt, 11 d): 5.00%
% Cell Lysis in 230L reactors (4 ppt, 12 d): 6.67%
% Cell Lysis in 230L reactors (5 ppt, 2 d): 3.18%
% Cell Lysis in 230L reactors (5 ppt, 3 d): 5.00%
% Cell Lysis in 230L reactors (5 ppt, 4 d): 3.33%
% Cell Lysis in 230L reactors (5 ppt, 5 d): 1.67%
% Cell Lysis in 230L reactors (5 ppt, 6 d): 21.67%
% Cell Lysis in 230L reactors (5 ppt, 7 d): 10.00%
% Cell Lysis in 230L reactors (5 ppt, 8 d): 1.67%
% Cell Lysis in 230L reactors (5 ppt, 9 d): 5.00%
% Cell Lysis in 230L reactors (5 ppt, 10 d): 5.00%
% Cell Lysis in 230L reactors (5 ppt, 11 d): 8.33%
% Cell Lysis in 230L reactors (5 ppt, 12 d): 3.33%
% Cell Lysis in 230L reactors (6 ppt, 2 d): 0.00%
% Cell Lysis in 230L reactors (6 ppt, 3 d): 0.00%
% Cell Lysis in 230L reactors (6 ppt, 4 d): 8.33%
% Cell Lysis in 230L reactors (6 ppt, 5 d): 0.00%
% Cell Lysis in 230L reactors (6 ppt, 6 d): 13.33%
% Cell Lysis in 230L reactors (6 ppt, 7 d): 18.33%
% Cell Lysis in 230L reactors (6 ppt, 8 d): 1.67%
% Cell Lysis in 230L reactors (6 ppt, 9 d): 6.67%
% Cell Lysis in 230L reactors (6 ppt, 10 d): 1.67%
% Cell Lysis in 230L reactors (6 ppt, 11 d): 6.67%
% Cell Lysis in 230L reactors (6 ppt, 12 d): 5.00%
% Cell Lysis in 230L reactors (7 ppt, 2 d): 0.00%
% Cell Lysis in 230L reactors (7 ppt, 3 d): 0.00%
% Cell Lysis in 230L reactors (7 ppt, 4 d): 3.33%
% Cell Lysis in 230L reactors (7 ppt, 5 d): 1.67%
% Cell Lysis in 230L reactors (7 ppt, 6 d): 18.33%
% Cell Lysis in 230L reactors (7 ppt, 7 d): 8.33%
% Cell Lysis in 230L reactors (7 ppt, 8 d): 1.67%
% Cell Lysis in 230L reactors (7 ppt, 9 d): 6.67%
% Cell Lysis in 230L reactors (7 ppt, 10 d): 6.67%
% Cell Lysis in 230L reactors (7 ppt, 11 d): 11.67%
% Cell Lysis in 230L reactors (7 ppt, 12 d): 5.00%
% Cell Lysis in 230L reactors (8 ppt, 2 d): 3.18%
% Cell Lysis in 230L reactors (8 ppt, 3 d): 3.33%
% Cell Lysis in 230L reactors (8 ppt, 4 d): 0.00%
% Cell Lysis in 230L reactors (8 ppt, 5 d): 3.33%
% Cell Lysis in 230L reactors (8 ppt, 6 d): 16.67%
% Cell Lysis in 230L reactors (8 ppt, 7 d): 5.00%
% Cell Lysis in 230L reactors (8 ppt, 8 d): 0.00%
% Cell Lysis in 230L reactors (8 ppt, 9 d): 6.67%
% Cell Lysis in 230L reactors (8 ppt, 10 d): 15.00%
% Cell Lysis in 230L reactors (8 ppt, 11 d): 11.67%
% Cell Lysis in 230L reactors (8 ppt, 12 d): 3.33%
% Cell Lysis in 230L reactors (10 ppt, 2 d): 0.00%
% Cell Lysis in 230L reactors (10 ppt, 3 d): 5.00%
% Cell Lysis in 230L reactors (10 ppt, 4 d): 6.67%
% Cell Lysis in 230L reactors (10 ppt, 5 d): 36.67%
% Cell Lysis in 230L reactors (10 ppt, 6 d): 31.67%
% Cell Lysis in 230L reactors (10 ppt, 7 d): 3.33%
% Cell Lysis in 230L reactors (10 ppt, 8 d): 0.00%
% Cell Lysis in 230L reactors (10 ppt, 9 d): 5.00%
% Cell Lysis in 230L reactors (10 ppt, 10 d): 3.33%
% Cell Lysis in 230L reactors (10 ppt, 11 d): 6.67%
% Cell Lysis in 230L reactors (10 ppt, 12 d): 5.00%
% Cell Lysis in 230L reactors (18 ppt, 2 d): 0.00%
% Cell Lysis in 230L reactors (18 ppt, 3 d): 3.33%
% Cell Lysis in 230L reactors (18 ppt, 4 d): 13.33%
% Cell Lysis in 230L reactors (18 ppt, 5 d): 5.00%
% Cell Lysis in 230L reactors (18 ppt, 6 d): 26.67%
% Cell Lysis in 230L reactors (18 ppt, 7 d): 20.00%
% Cell Lysis in 230L reactors (18 ppt, 8 d): 1.67%
% Cell Lysis in 230L reactors (18 ppt, 9 d): 8.33%
% Cell Lysis in 230L reactors (18 ppt, 10 d): 5.00%
% Cell Lysis in 230L reactors (18 ppt, 11 d): 1.67%
% Cell Lysis in 230L reactors (18 ppt, 12 d): 3.33%
cell lysis (230 L reactors, all treatments except 10 ppt): below 30%
Culture Dry Weight in 230L reactors (time 0 d): 0.030 g/L
Culture Dry Weight in 230L reactors (time 1 d): 0.042 g/L
Culture Dry Weight in 230L reactors (time 2 d): 0.065 g/L
Culture Dry Weight in 230L reactors (time 4 d): 0.145 g/L
Culture Dry Weight in 230L reactors (time 5 d): 0.228 g/L
Culture Dry Weight in 230L reactors (time 6 d): 0.173 g/L
Culture Dry Weight in 230L reactors (time 7 d): 0.185 g/L
Culture Dry Weight in 230L reactors (time 8 d): 0.273 g/L
Culture Dry Weight in 230L reactors (time 9 d): 0.145 g/L
Culture Dry Weight in 230L reactors (time 10 d): 0.220 g/L
Culture Dry Weight in 230L reactors (time 11 d): 0.145 g/L
